# Tests used:
# [1] = system: SH-SY5Y neuroblastoma cell line; assay: Differentiation of SH-SY5Y neuroblastoma cells; assay type: cell-based; conditions: 50 ng/ml, three days after factor addition, FIG. 8C
# Description: In one experiment, cells from the SH-SY5Y neuroblastoma cell line were plated at 2×10^5 cells/ml/well in 12-well tissue culture plates. After one day in culture cells were either left untreated (Cn) or stimulated with 50 ng/ml artemin (ART) or 10 μM retinoic acid (RA), a known inducer of differentiation of SH-SYSY cells. Three days after factor addition, differentiation was assessed and cells were photographed.
# [2] = system: NLF cells transformed with GFRα2; assay: Ga14-Elk/Ga14-Luc reporter in NLF neuroblastoma cells transformed with GFRα2; assay type: cell-based; conditions: factor for 24 hours, low-serum medium, FIG. 10B
# Description: Thus, to directly test which receptor combinations can form functional receptors for artemin, expression plasmids for the individual GFRA coreceptors together with the Ga14-Elk/Ga14-Luc reporter system were transiently transformed into fibroblasts that stably express RET. […]
# NLF neuroblastoma cells, which naturally express GFRα2/RET (Tansey et al., submitted), or the RET-3T3 cells were plated at 85,000 cells/well in 12-well plates, and cotransfected with the reporter plasmids Ga14-Luc and CMV-Ga14-Elk (250 ng/well and 50 ng/well, respectively), CMV-lacZ (50 ng/well) for transfection normalization, one of the CMV-GFRA expression plasmids (500 ng/well), and pBluescript (650 ng/well) as carrier for a total of 1.5 μg DNA/well using the Superfect reagent (Qiagen) according to the manufacturer's instructions. […] Measurement of luciferase and β-galactosidase activity was measured using a luminometer and performed as described (Svaren et al., EMBO J 17:6010-6019, 1998). The average luciferase activity of duplicate samples was normalized to β-galactosidase activity of the cotransformed lacZ reporter, and fold activation was calculated by dividing the normalized activity in factor-treated cells by that in the no treatment control.
substance,measurement,setting,value
"artemin: recombinant mature human artemin (FIG. 3A, SEQ ID NO:3) with 8-histidine tag, produced in E. coli; GDNF family neurotrophic factor","differentiation (neurite outgrowth, neuronal morphology) of SH-SY5Y cells",[1],induced strong differentiation responses
same,response of NLF cells transformed with GFRα2 (luciferase reporter),[2],not GFRα2
